This note sets out measurements from patent US10934298B2, “Substituted pyrazolo[1,5-a]pyrimidines for the treatment of medical disorders” (BIAL—BioTech Investments, Inc., priority 2016, dated 2021).

≈ marks a conversion by molar mass, not a printed value. Where two headings read alike, the source gives them in different places.

A short description of data set [1]: Compound solubility in water. It is filed as physicochemical.
The target in data set [2] is T1, glucocerebrosidase (Gcase) (Homo sapiens, UniProt P04062).
T1 construct: micellar solution containing 10 nM GCase and 100 nM saposin C
T1 sequence (P04062 40-536): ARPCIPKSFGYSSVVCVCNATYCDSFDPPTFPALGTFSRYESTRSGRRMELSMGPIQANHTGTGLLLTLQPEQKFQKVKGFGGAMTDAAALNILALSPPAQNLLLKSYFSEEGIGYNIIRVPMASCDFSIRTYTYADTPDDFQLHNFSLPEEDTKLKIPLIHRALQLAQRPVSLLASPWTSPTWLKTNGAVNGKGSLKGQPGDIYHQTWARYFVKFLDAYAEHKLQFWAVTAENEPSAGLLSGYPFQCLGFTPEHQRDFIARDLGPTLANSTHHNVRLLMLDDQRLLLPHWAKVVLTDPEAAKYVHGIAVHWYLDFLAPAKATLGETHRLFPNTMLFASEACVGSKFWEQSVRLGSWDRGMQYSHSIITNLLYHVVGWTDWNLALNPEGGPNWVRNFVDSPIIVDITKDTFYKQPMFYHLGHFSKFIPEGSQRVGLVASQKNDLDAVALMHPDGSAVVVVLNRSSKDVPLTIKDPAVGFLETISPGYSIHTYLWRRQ
Description: Glucocerebrosidase (Gcase) activation assay with 4-methylumbelliferyl-beta-D-glucopyranoside substrate, saposin C and phosphatidylserine/triton micelles, fluorescence readout. As to conditions: for Percent Gease Activation, 0.1 μM Test Compound / Percent Gease Activation, 1 μM Test Compound: Table 4. It is filed as biochemical. The method, boiled down: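 Readout is endpoint fluorescence (ex 365, em 440 nm) after glycine pH 12.5 stop of a 15-min room-temperature reaction. Enzyme mix: GCase 10 nM plus saposin C 100 nM in 0.37 mol % PS/0.32 mM triton micelles, pH 4.7, compound pre-incubated 30 min; substrate solution 2 mM before 1:1 mixing. Tested at 1.0/0.1 μM, then 3-fold, 8-point series up to 5 μM.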

For orientation: solubility means the dissolved amount per volume that the medium holds. Low readings indicate a poorly soluble substance, high ones a readily soluble substance. As for `Cc1cc(-c2ccccn2)nc2c(C(=O)N[C@@H](C)C3CC3)cnn12` [III-24], the solubility in data set [1] (Table 3A) amounted to 8.1 µg/mL (≈ 25.2 µM). The “Percent Gcase Activation, 0.1 μM Test Compound” value in data set [2] (0.1 μM test compound, Table 3A) is reported as “** (Gcase activation in the range of 10% up to 20%)”. In addition, the “Percent Gcase Activation, 1 μM Test Compound” value in data set [2] (1 μM test compound, Table 3A) was “+++ (Gcase activation greater than 60%)”.
Take `Cc1cc(-c2cccnc2)nc2c(C(=O)N[C@@H](C)C3CC3)cnn12` [III-26]: the concentration in solution in data set [1] (Table 3A) (solubility) was 26 µg/mL (≈ 80.9 µM). The “Percent Gcase Activation, 0.1 μM Test Compound” value in data set [2] (0.1 μM test compound, Table 3A) is on record as “* (less than 10% Gcase activation)”. Also, the “Percent Gcase Activation, 1 μM Test Compound” value in data set [2] (1 μM test compound, Table 3A) is “++ (Gcase activation in the range of 30% up to 60%)”.
`COc1cccc(-c2cc(C)n3ncc(C(=O)NC(C4CC4)C(F)(F)F)c3n2)n1` (stereo not drawn) [III-105] gave a solubility in data set [1] of 0.08 µg/mL (≈ 0.197 µM). Also, in data set [2] (test compound at 0.1 μM), the “Percent Gcase Activation, 0.1 μM Test Compound” value is recorded as “*** (greater than 20% Gcase activation)”. Besides, in data set [2] (test compound at 1.0 μM), the “Percent Gcase Activation, 1 μM Test Compound” value is on record as “+++ (Gcase activation greater than 60%)”.
As to `Cc1cc(-c2ccc(Cl)nc2)nc2c(C(=O)N[C@@H](C3CC3)C(F)(F)F)cnn12` [III-118], the solubility in data set [1] came out at 0.4 µg/mL (≈ 0.976 µM). The “Percent Gcase Activation, 0.1 μM Test Compound” value in data set [2] (test compound at 0.1 μM) is reported as “*** (greater than 20% Gcase activation)”. The “Percent Gcase Activation, 1 μM Test Compound” value in data set [2] (test compound at 1.0 μM) is reported as “+++ (Gcase activation greater than 60%)”.
In data set [1], `Cc1cc(-c2cccc(F)n2)nc2c(C(=O)NC(C3CC3)C(F)(F)F)cnn12` (stereo not drawn) [III-130] returned a solubility of 0.2 µg/mL (≈ 0.508 µM). Further, the “Percent Gcase Activation, 0.1 μM Test Compound” value in data set [2] (test compound at 0.1 μM) is “*** (greater than 20% Gcase activation)”. Moreover, in data set [2] (test compound at 1.0 μM), the “Percent Gcase Activation, 1 μM Test Compound” value is on record as “+++ (Gcase activation greater than 60%)”.
Regarding `Cc1cc(-c2ccc3ocnc3c2)nc2c(C(=O)NC(C3CC3)C(F)(F)F)cnn12` (stereo not drawn) [III-171], in data set [1], the “Compound Solubility in Water” value was found to be 0.4 µg/mL. The “Percent Gcase Activation, 0.1 μM Test Compound” value in data set [2] (test compound at 0.1 μM) is “*** (greater than 20% Gcase activation)”. In addition, the “Percent Gcase Activation, 1 μM Test Compound” value in data set [2] (test compound at 1.0 μM) is on record as “+++ (Gcase activation greater than 60%)”.
Consider `C#Cc1ccc(NC(=O)c2cnn3c(C)cc(C)nc23)cc1` [IV-1], for which, in data set [1] (Table 4), the “Compound Solubility in Water” value is <1.5 µg/mL. In data set [2] (0.1 μM test compound), the “Percent Gease Activation, 0.1 μM Test Compound” value was “** (Gcase activation in the range of 10% up to 20%)”. The “Percent Gease Activation, 1 μM Test Compound” value in data set [2] (1 μM test compound) is given as “++ (Gcase activation in the range of 30% up to 60%)”.
Take `Cc1cc(C)n2ncc(C(=O)Nc3ccc(C#CCN(C)C)cc3)c2n1` [IV-2]: in data set [2] (0.1 μM test compound), the “Percent Gease Activation, 0.1 μM Test Compound” value was “* (less than 10% Gcase activation)”. Also, the “Percent Gease Activation, 1 μM Test Compound” value in data set [2] (1 μM test compound) is listed as “+ (less than 30% Gcase activation)”.
As for `Cc1cc(C)n2ncc(C(=O)Nc3ccc(N4CCCCC4)cc3)c2n1` [IV-3], the “Compound Solubility in Water” value in data set [1] (Table 4) was <1.5 µg/mL. Further, the “Percent Gease Activation, 0.1 μM Test Compound” value in data set [2] (0.1 μM test compound) is on record as “* (less than 10% Gcase activation)”. Also, in data set [2] (1 μM test compound), the “Percent Gease Activation, 1 μM Test Compound” value is recorded as “+ (less than 30% Gcase activation)”.
Take `Cc1cc(C)n2ncc(C(=O)Nc3ccc4c(c3)OCO4)c2n1` [IV-4]: the “Percent Gease Activation, 0.1 μM Test Compound” value in data set [2] (0.1 μM test compound) is listed as “* (less than 10% Gcase activation)”. Further, the “Percent Gease Activation, 1 μM Test Compound” value in data set [2] (1 μM test compound) is on record as “++ (Gcase activation in the range of 30% up to 60%)”.
In the case of `Cc1cc(C)n2ncc(C(=O)Nc3ccc4c(c3)CCC4)c2n1` [IV-5], the “Percent Gease Activation, 0.1 μM Test Compound” value in data set [2] (0.1 μM test compound) is on record as “** (Gcase activation in the range of 10% up to 20%)”. Besides, the “Percent Gease Activation, 1 μM Test Compound” value in data set [2] (1 μM test compound) is recorded as “+++ (Gcase activation greater than 60%)”.
